Among the data in patent US9296711B2, “Substituted isoxazole amide compounds as inhibitors of stearoyl-CoA desaturase 1 (SCD1)” (Hoffman-La Roche Inc., priority 2012, dated 2016) are IC50 values, retold here.

The structures appear in SMILES notation.

This assay addresses T1, SCD1 (Mus musculus, UniProt P13516).
T1 construct: Mouse liver microsomes, prepared from mice fed a high-carbohydrate diet, were a source of the SCD; from tissue; host or cells: mouse liver microsomes (mice fed a high-carbohydrate diet)
T1 sequence (P13516 1-355): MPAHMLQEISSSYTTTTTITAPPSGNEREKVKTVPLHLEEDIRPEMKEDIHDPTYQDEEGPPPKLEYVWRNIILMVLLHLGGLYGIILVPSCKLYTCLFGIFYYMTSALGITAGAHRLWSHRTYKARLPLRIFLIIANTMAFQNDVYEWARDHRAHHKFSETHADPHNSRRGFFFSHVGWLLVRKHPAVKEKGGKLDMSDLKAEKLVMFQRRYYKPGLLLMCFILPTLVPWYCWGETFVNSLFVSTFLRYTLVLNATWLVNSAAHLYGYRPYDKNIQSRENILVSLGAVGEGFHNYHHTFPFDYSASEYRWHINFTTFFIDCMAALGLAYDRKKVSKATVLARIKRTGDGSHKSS
The assay is described as follows: SCD assay: release of tritiated water from desaturation of 9,10-3H-stearoyl CoA by mouse liver microsomes. To be noted: mouse liver microsomes as SCD source; 300 nM (9,10)3H-stearoyl CoA; 25 minutes at room temperature; read-out: IC50 (in vitro inhibition of SCD1). The class given is biochemical. The text has this: Stearoyl CoA desaturase activity was monitored by a modification of the acyl carrier protein assay described by B. R. Talamo and K. Bloch in Anal. Biochem. 1968, 29, 300-304. The SCD assay monitors the release of tritiated water from the desaturation of 9,10-^3H-stearoyl CoA.
Mouse liver microsomes, prepared from mice fed a high-carbohydrate diet, were a source of the SCD and cyt b5 and cyt b5 reductase, necessary accessory proteins for the coupled reaction. Reaction mixtures for compound titrations contained 50 mM Tris HCl pH 7.5, 100 mM NaCl, 0.165 mg/ml BSA, 2.4% DMSO, 1 mM NADH, 0.03% T-20, and 300 nM (9,10)^3H-stearoyl CoA (Perkin-Elmer). Reactions were initiated upon the addition of 4 ug/ml SCD microsomes. Incubations were terminated after 25 minutes at room temperature with cold 6% TCA. After standing 10 minutes at 4° C., samples were centrifuged 15 minutes at 4000 rpm to pellet precipitated protein. Supernatants were added to microtiter plates containing suspensions of activated charcoal (Darco G-60, Fisher Scientific) and mixed by inversion. Plates were then centrifuged to separate ^3H—H2O product from charcoal-bound reactants. Supernatants were quantitated in a Perkin Elmer Topcount 384 after solubilization in ScintiSafe Plus 50% (Fisher Scientific).
Inhibition (%) of SCD activity by compounds was calculated according to the following formula: % Inhibition=100*[1−(CPMsample−CPMblank)/(CPMtotal−CPMblank)]
For `NC(=O)c1cc(-c2ccc(CN3Cc4ccccc4C3)cc2)no1` [Example 46, 3-[4-(1,3-Dihydro-isoindol-2-ylmethyl)-phenyl]-isoxazole-5-carboxylic acid amide], the IC50 worked out at 2.8 µM.
As for `NC(=O)c1cc(-c2ccc(COc3ccccc3C(F)(F)F)cc2)no1` [Example 36, 3-[4-(2-Trifluoromethyl-phenoxymethyl)-phenyl]-isoxazole-5-carboxylic acid amide], the IC50 was determined as 0.26 µM.
The figure for `COc1ccccc1COc1ccc(-c2cc(C(N)=O)on2)cc1` [Example 3, 3-[4-(2-Methoxy-benzyloxy)-phenyl]-isoxazole-5-carboxylic acid amide] is 0.85 µM; for `NC(=O)c1cc(-c2ccc(OCc3ccc(F)c(F)c3)cc2)no1` [Example 7, 3-[4-(3,4-Difluoro-benzyloxy)-phenyl]-isoxazole-5-carboxylic acid amide] it is 2.3 µM.
Regarding `NC(=O)c1cc(-c2ccc(OCc3ccccc3Cl)cc2)no1` [Example 19, 3-[4-(2-Chloro-benzyloxy)-phenyl]-isoxazole-5-carboxylic acid amide], the IC50 is 0.28 µM.
The figure for `NC(=O)c1cc(-c2ccc(OCc3cc(F)ccc3Cl)cc2)no1` [Example 13, 3-[4-(2-Chloro-5-fluoro-benzyloxy)-phenyl]-isoxazole-5-carboxylic acid amide] is 0.42 µM; for `Cc1ccc(F)cc1OCc1ccc(-c2cc(C(N)=O)on2)cc1` [Example 43, 3-[4-(5-Fluoro-2-methyl-phenoxymethyl)-phenyl]-isoxazole-5-carboxylic acid amide] it is 0.055 µM; for `NC(=O)c1cc(-c2ccc(OCc3cccc(Cl)c3)cc2)no1` [Example 18, 3-[4-(3-Chloro-benzyloxy)-phenyl]-isoxazole-5-carboxylic acid amide] it is 1.5 µM.
The result for `NC(=O)c1cc(-c2ccc(OCc3cccc(C(F)(F)F)c3)cc2)no1` [Example 17, 3-[4-(3-Trifluoromethyl-benzyloxy)-phenyl]-isoxazole-5-carboxylic acid amide] reads 1.4 µM; that for `NC(=O)c1cc(-c2ccc(Cn3ncc4ccccc43)cc2)no1` [Example 50, 3-(4-Indazol-1-ylmethyl-phenyl)-isoxazole-5-carboxylic acid amide], 0.074 µM.
The figure for `Cc1cc(F)ccc1OCc1ccc(-c2cc(C(N)=O)on2)cc1` [Example 42, 3-[4-(4-Fluoro-2-methyl-phenoxymethyl)-phenyl]-isoxazole-5-carboxylic acid amide] is 0.28 µM; for `NC(=O)c1cc(-c2ccc(OCc3ccccc3I)cc2)no1` [Example 11, 3-[4-(2-Iodo-benzyloxy)-phenyl]-isoxazole-5-carboxylic acid amide] it is 0.41 µM; for `NC(=O)c1cc(-c2ccc(OCc3ccccc3Br)cc2)no1` [Example 20, 3-[4-(2-Bromo-benzyloxy)-phenyl]-isoxazole-5-carboxylic acid amide] it is 0.17 µM.
As for `Cc1ccc(COc2ccc(-c3cc(C(N)=O)on3)cc2)cc1C` [Example 4, 3-[4-(3,4-Dimethyl-benzyloxy)-phenyl]-isoxazole-5-carboxylic acid amide], the IC50 was 2.7 µM.
The figure for `Cc1c(Cl)cccc1OCc1ccc(-c2cc(C(N)=O)on2)cc1` [Example 41, 3-[4-(3-Chloro-2-methyl-phenoxymethyl)-phenyl]-isoxazole-5-carboxylic acid amide] is 0.39 µM.
The result for `NC(=O)c1cc(-c2ccc(OCc3cccnc3Cl)cc2)no1` [Example 15, 3-[4-(2-Chloro-pyridin-3-ylmethoxy)-phenyl]-isoxazole-5-carboxylic acid amide] reads 2.4 µM.
The result for `NC(=O)c1cc(-c2ccc(COc3ccc(Cl)cc3)cc2)no1` [Example 25, 3-[4-(4-Chloro-phenoxymethyl)-phenyl]-isoxazole-5-carboxylic acid amide] reads 1.3 µM.
Turning to `NC(=O)c1cc(-c2ccc(CN3CCCc4ccccc43)cc2)no1` [Example 52, 3-[4-(3,4-Dihydro-2H-quinolin-1-ylmethyl)-phenyl]-isoxazole-5-carboxylic acid amide], the IC50 is 0.024 µM.
For the molecule `COc1ccccc1OCc1ccc(-c2cc(C(N)=O)on2)cc1` [Example 28, 3-[4-(2-Methoxy-phenoxymethyl)-phenyl]-isoxazole-5-carboxylic acid amide], the IC50 came to 0.17 µM.
As to `COc1cccc(OCc2ccc(-c3cc(C(N)=O)on3)cc2)c1` [Example 29, 3-[4-(3-Methoxy-phenoxymethyl)-phenyl]-isoxazole-5-carboxylic acid amide], the IC50 amounted to 0.34 µM.
In the case of `Cc1ccccc1COc1ccc(-c2cc(C(N)=O)on2)cc1` [Example 9, 3-[4-(2-Methyl-benzyloxy)-phenyl]-isoxazole-5-carboxylic acid amide], the IC50 was found to be 0.46 µM.
Consider `NC(=O)c1cc(-c2ccc(Cn3nnc4ccccc43)cc2)no1` [Example 48, 3-(4-Benzotriazol-1-ylmethyl-phenyl)-isoxazole-5-carboxylic acid amide], for which the IC50 was 0.23 µM.
The figure for `Cc1cccc(C)c1OCc1ccc(-c2cc(C(N)=O)on2)cc1` [Example 31, 3-[4-(2,6-Dimethyl-phenoxymethyl)-phenyl]-isoxazole-5-carboxylic acid amide] is 1.9 µM.
The figure for `NC(=O)c1cc(-c2ccc(OCc3ccccc3C(F)(F)F)cc2)no1` [Example 21, 3-[4-(2-Trifluoromethyl-benzyloxy)-phenyl]-isoxazole-5-carboxylic acid amide] is 0.18 µM; for `NC(=O)c1cc(-c2ccc(OCc3ccccc3C(F)(F)F)c(Cl)c2)no1` [Example 55, 3-[3-Chloro-4-(2-trifluoromethyl-benzyloxy)-phenyl]-isoxazole-5-carboxylic acid amide] it is 2.7 µM; for `NC(=O)c1cc(-c2ccc(OCc3ccccc3SC(F)(F)F)cc2)no1` [Example 1, 3-[4-(2-Trifluoromethylsulfanyl-benzyloxy)-phenyl]-isoxazole-5-carboxylic acid amide] it is 0.48 µM.
Consider `NC(=O)c1cc(-c2ccc(Cn3ccc4ccccc43)cc2)no1` [Example 47, 3-(4-Indol-1-ylmethyl-phenyl)-isoxazole-5-carboxylic acid amide], for which the IC50 was found to be 0.017 µM.
Consider `Cc1cccc2c1ccn2Cc1ccc(-c2cc(C(N)=O)on2)cc1` [Example 54, 3-[4-(4-Methyl-indol-1-ylmethyl)-phenyl]-isoxazole-5-carboxylic acid amide], for which the IC50 worked out at 0.22 µM.
The result for `COc1ccc(OCc2ccc(-c3cc(C(N)=O)on3)cc2)cc1` [Example 30, 3-[4-(4-Methoxy-phenoxymethyl)-phenyl]-isoxazole-5-carboxylic acid amide] reads 3.3 µM.
The figure for `N#Cc1ccccc1COc1ccc(-c2cc(C(N)=O)on2)cc1` [Example 5, 3-[4-(2-Cyano-benzyloxy)-phenyl]-isoxazole-5-carboxylic acid amide] is 0.97 µM; for `NC(=O)c1cc(-c2ccc(OCc3ccccc3[S+]([O-])C(F)(F)F)cc2)no1` (stereo not shown) [Example 2, 3-[4-(2-Trifluoromethanesulfinyl-benzyloxy)-phenyl]-isoxazole-5-carboxylic acid amide] it is 0.58 µM.

One may read the IC50 as the concentration at which inhibition is half-maximal.
